In patent US9271504B2, “Insecticidal compositions and uses thereof” (Board of Trustees of Michigan State University, priority 2005, dated 2016):
Values joined by “and” are separate entries in the source; they are usually repeats but may differ in a detail not shown here. Identical values can stand only once.

Experiments:
[1] = system: 3rd instar Colorado potato beetle larvae; test: Residual (stomach poison) toxicity bioassay on treated potato leaflets; format: in vivo, Leptinotarsa decemlineata; conditions: leaflets treated with 20% (w/w) extract
Experimental: Stomach poison effects of the thirty plant extracts were assed by morbidity assays using 3rd instar larvae fed on treated potato leaflets.
Leaflets were treated with 2 ml of each plant extract suspension in distilled water containing 10% acetone with the Potter Spray Tower set at 10 PSI with a 0.7 mm internal diameter nozzle. After treatment, the leaflets were dried at room temperature for about 5 min. The cut end of each leaflet petiole was covered with a 30×55 mm piece of sterile cotton wool, which was moistened with 2 ml of water containing 1% NPK (20-20-20) fertilizer. This treatment ensured that the excised leaflet remained green for at least 7 days. Treated leaflets were transferred into 1000 ml glass jars to which 20 3rd instar larvae were added before incubation as described above. Mortalities were assessed at 24 hr intervals for 7 days. Control leaflets were treated with 2 ml of distilled water containing 10% acetone and the standard imidacloprid control was used as described above. Each treatment was repeated three times per block and blocks were completed in a randomized complete block design.

[2] = system: 3rd instar Colorado potato beetle larvae; test: Contact toxicity bioassay (Potter spray tower), 3rd instar larvae; conditions: 2 ml of 40% (w/w) plant suspension
Experimental: Fifty grams of sample were placed into 1000 ml Erlemneyer flasks with 500 ml of methanol (Sigma). Flasks were covered with aluminum foil, placed on a horizontal shaker (HS 260 Basic, IKA Group) and shaken (120 oscillations/min for 24 h) in the dark. The suspension was filtered through two layers of cheese cloth, transferred into a 250 ml evaporating flask and excess methanol evaporated in a rotary evaporator (RV 05 Basic 1B, IKA Group) at 32±2° C. The resulting residue was weighted and eluted with sufficient distilled water containing 10% acetone (w/w) to yield a 40% (w/w) plant suspension.
Two ml of the distilled water containing 10% acetone was also applied to 20 larvae in each replicate as a negative control along with imidacloprid (CONFIDOR SL, Bayer) at manufacturer recommended rate as a positive control. After spraying, the larvae were transferred into 1000 ml glass jars and provided with fresh potato leaflets. The top of each jar was covered with cheese cloth and held at 28±2° C. and 16 h: 8 h light dark photo regime. Mortalities were recorded at 24 h intervals for 7 days. […] Each treatment was replicated three times within a trial and each trial was repeated three times.
Data were corrected for mortality in the controls using Abbotts formula and then normalized using arcsine transformation. Transformed data were analyzed using ANOVA (∝=0.05) and Tukeys mean separation (∝=0.05). […]

[3] = system: Colorado potato beetle 1st-4th instar larvae and adults; test: Contact toxicity to various development stages; format: in vivo, Leptinotarsa decemlineata; conditions: 48 h incubation, 40% (w/w) suspension
Experimental: The plant samples were prepared according to the procedure described above. Nine extracts were used in this study. The plants (Table 8) were all collected during spring and summer of 2002. Samples were dried at room temperature and were ground for 5 min in a mill (M 20 IKA Universal Mill, IKA Group). […] For the dose-mortality bioassay, H. lupulus extract stock suspension was prepared as described above, containing 50% (w/w) plant extract/water with 10% acetone, and diluted in distilled water containing 10% acetone (w/w) to produce solutions containing 2.5, 5, 10, 20 and 40% (w/w).
Extract contact effects were determined on 1st-4th instar larvae as well as adult beetles. Twenty individuals for each development stage were transferred to Whatman filter paper in 90 mm disposable Petri dishes. The plant extract suspensions were shaken for 1 min and 2 ml of extract suspension was applied to each batch using a Potter spray tower set at 10 PSI with a 0.7 mm diameter fine droplet spray nozzle. After spraying, the insects were left to dry for 10 min at room temperature before transferring into a 1 l glass jar with fresh potato leaflets. The insects were incubated at 28±2° C. and 16:8 hr photophase. Controls were treated with 2 ml sterile distilled water containing 10% acetone. Imidacloprid (CONFIDOR SL, Bayer) was used as a standard control and three groups of 20 insects were treated with 2 ml of imidacloprid at the manufacturer's recommended rate (1.5 μl/ml) in distilled water. Mortalities were recorded at 24 h intervals for 7 d. Data were submitted to a randomized complete block statistical analysis. Three replicates of each developmental stage were sprayed with a plant extract suspension, three were used as control in each trial and three trials were performed each consisting of 3 treatment replicates.
Screening data were corrected for mortality in the controls using Abbott's formula (Abbott, J Econ Entomol 18:265-267 (1925)) and then normalised using an arcsine transformation. Transformed data were analyzed using ANOVA (P<0.05) and Tukeys mean separation (P≦0.05). All statistical analyses were carried out using MINITAB Release 14. Colorado potato beetle mortality obtained from dose-mortality bioassay utilizing H. lupulus was corrected for control mortality using Abbott's formula (supra). The corrected mortality data were analyzed using POLO-PC to estimate LC50, LC90 and the regression line slopes. Homogeneity of the regression lines between various developmental stages were tested using the maximum likelihood approximation test (P≦0.05).

[4] = system: redbanded leafrollers, Argyrotaenia velutinana; test: Electroantennogram (EAG) responses of redbanded leafrollers; format: in vivo; conditions: 2 mg on filter paper
Experimental: (§1) Five natural-product sources were used per study. The plants (Table 1) were all collected from sandy lime soil during spring and summer of 2002 in Ta ? liçiftlik, Tokat, in a temperate region of Turkey, where the altitude is 600 m. Samples were dried at room temperature for 3 wk in the dark and subsequently were ground in a mill (M 20 IKA Universal Mill, IKA Group). Ground plants were stored in 2000-ml glass jars at 18±2° C. in the dark. Fifty-gram samples were placed into 1000-ml Erlenmeyer flasks with 500-ml of methanol (Sigma). […] The resulting residue was weighed and mixed with acetone to yield a 20% (w/w) plant suspension.
(§2) The EAG system and test protocols have been detailed by Stelinski et al. (2003 J. Chem. Ecol. 29: 403-422; Physiol. Entomol. 28: 97-107). Two milligrams of plant extracts (Table 1) or pheromone ((Z)11-14:Ac (lot #10010), Shin Etsu Tokyo, Japan) were diluted in acetone (20 μl total solution) and pipetted onto 1.4×0.5 cm strips of Whatman No. 1 filter paper. […] EAGs were measured as the maximum amplitude of depolarization elicited by 1-ml puffs of air through EAG-cartridges directed over live-insect preparations.
(§3) Male and female obliquebanded leafrollers and redbanded leafrollers were 2-4 d old when used for electroantennograms. […] For each sample tested, EAGs were recorded from ten moths of each sex. […]

[5] = system: obliquebanded leafrollers, Choristoneura rosaceana; test: Eight-arm olfactometer attraction study; format: in vivo; conditions: 25 μl of 20% w/w extract in acetone, counts after 24 h
Description: Male or female obliquebanded leafrollers used in this study were 1-3 d old. They were reared as described above. Discs, 55 mm in diameter, were cut from the sticky liners of pheromone traps (LPD Scenturian Guardpost, Suterra, Bend, Oreg.) intended for catching Lepidoptera. Each sticky disc was cleaned with acetone and placed into sterile 90-mm disposable Petri dish. Twenty millimeter diameter discs, cut from Whatman Number 1 filter paper, were placed centrally on top of the 55-mm sticky discs. Twenty-five microliters of each plant extract, diluted in acetone (20% w/w), was applied to the central filter paper disc. In the control treatment, 25-μl of acetone was applied to the disc. In the positive control, 25-μl of the pheromone component (Z)11-14:Ac was applied. In addition to positive control and negative or non-treatment control discs, a three-component obliquebanded leafroller pheromone in a rubber septum was also used as a standard. The septa were loaded with 0.485 mg of (Z)- and 0.015 mg (E)-11-tetradecenyl acetates and 0.026 mg of (Z)-11-tetradecenol (Hill and Roelofs 1979). […]
For the olfactometer test, the number of male insects attracted by each treatment was expressed as a percentage of the total number of insects tested in each replicate. […] The transformed data were analyzed using single-factor ANOVA (Minitab Release 14) (P=0.05) followed by Tukey's test (P=0.05). […]

[6] = system: obliquebanded leafrollers, Choristoneura rosaceana; test: Electroantennogram (EAG) responses of obliquebanded leafrollers; format: in vivo; conditions: 2 mg on filter paper
Experimental: as §1, §2, §3

## O=[N+]([O-])NC1=NCCN1Cc1ccc(Cl)nc1 [Imidacloprid]
[1]; 48 h incubation at 28 ± 2° C.
  Residual toxicities % (mean ± SEM): 71.9% and 71.89 ± 0.25 a A %
[1]; 72 h incubation at 28 ± 2° C.
  Residual toxicities % (mean ± SEM): 83.64 ± 0.23 a A %
[2]; 24 h incubation at 28 ± 2° C.
  Mortality % (mean ± SEM) caused by contact effect: 100 ± 0.00 a A %
[2]; 48 h incubation at 28 ± 2° C.
  Mortality % (mean ± SEM) caused by contact effect: 100 ± 0.00 a A %
[3]; 1st Instar Larvae
  % Mortality ± SEM, contact toxicity: 100%
[3]; 2nd Instar Larvae
  % Mortality ± SEM, contact toxicity: 94.8% and 94.82 ± 3.05 a %
[3]; 3rd Instar Larvae
  % Mortality ± SEM, contact toxicity: 100%
[3]; 4th Instar Larvae
  % Mortality ± SEM, contact toxicity: 11.5% and 11.57 ± 0.11 b %
[3]; Adult
  % Mortality ± SEM, contact toxicity: 44.37 ± 3.32 a %

## CC/C=C\CCCCCCCCCCOC(C)=O [Pheromone, (Z)11-14:Ac]
[4]; females
  EAG responses (mV ± SE) upon stimulation with 1 ml of air through stimulus cartridge: 0.43 ± 0.06 a mV
[4]; males
  EAG responses (mV ± SE) upon stimulation with 1 ml of air through stimulus cartridge: 5.42 ± 0.40 a mV
[5]; females, listed as Pheromone on paper
  Attraction (Mean ± SEM) %: 1.1% and 1.14 ± 1.12 b %
[5]; males
  Attraction (Mean ± SEM) %: 4.05 ± 1.66 bc %
[6]; females
  EAG responses (mV ± SE) upon stimulation with 1 ml of air through stimulus cartridge: 0.45 ± 0.06 ab mV
[6]; males
  EAG responses (mV ± SE) upon stimulation with 1 ml of air through stimulus cartridge: 4.87 ± 0.32 a mV
